Test results published in the supplement of paper PMC10307832.

Columns and labels:
Assay in all cases: relative viability (nuclei count vs DMSO), 5 days (fraction); higher = more cells survive
TGX 221 + Palbociclib = compound: CC1=CN2C(=O)C=C(N=C2C(=C1)C(C)NC3=CC=CC=C3)N4CCOCC4 [TGX 221] + CC(=O)c1c(C)c2cnc(Nc3ccc(N4CCNCC4)cn3)nc2n(C2CCCC2)c1=O [Palbociclib] (partner 0.5 µM)
Outline: (§1)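 Lung cancer cell lines in 1536-well plates were dosed by pin tool the day after seeding, either with one drug alone or with a fixed anchor-drug dose plus five library-drug doses (not always all listed) in √10 steps. After 5 days, cells were fixed and their nuclei stained in one step (final 0.05% Triton X-100, 1% formaldehyde, 1 ug/ml Hoechst), then counted on 4× images. Relative viability is the nuclei count in treated wells divided by that in vehicle wells. Values are medians of duplicate plates.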

TGX 221 + Pemetrexed = compound: CC1=CN2C(=O)C=C(N=C2C(=C1)C(C)NC3=CC=CC=C3)N4CCOCC4 [TGX 221] + Nc1nc2[nH]cc(CCc3ccc(C(=O)N[C@@H](CCC(=O)O)C(=O)O)cc3)c2c(=O)[nH]1 [Pemetrexed] (partner 0.2 µM)
Outline: as §1

[1] = compound: C1=CC=C(C(=C1)C2=CC=C(C=C2)C3=CSC4=C3C(=C(C(=O)N4)C#N)O)O + Cc1nc(Nc2ncc(C(=O)Nc3c(C)cccc3Cl)s2)cc(N2CCN(CCO)CC2)n1 [Dasatinib] (partner 0.075 µM)
Outline: as §1

TGX 221 + Navitoclax = compound: CC1=CN2C(=O)C=C(N=C2C(=C1)C(C)NC3=CC=CC=C3)N4CCOCC4 [TGX 221] + CC1(C)CCC(c2ccc(Cl)cc2)=C(CN2CCN(c3ccc(C(=O)NS(=O)(=O)c4ccc(N[C@H](CCN5CCOCC5)CSc5ccccc5)c(S(=O)(=O)C(F)(F)F)c4)cc3)CC2)C1 [Navitoclax] (partner 0.5 µM)
Outline: as §1

| Cell Line | relative viability (TGX 221 + Palbociclib; first compound 0.253 µM) | relative viability (TGX 221 + Palbociclib; first compound 0.8 µM) | relative viability (TGX 221 + Palbociclib; first compound 2.53 µM) | relative viability (TGX 221 + Palbociclib; first compound 8 µM) | relative viability (TGX 221 + Pemetrexed; first compound 0.253 µM) | relative viability (TGX 221 + Pemetrexed; first compound 0.8 µM) | relative viability (TGX 221 + Pemetrexed; first compound 2.53 µM) | relative viability (TGX 221 + Pemetrexed; first compound 8 µM) | relative viability ([1]; first compound 0.08 µM) | relative viability ([1]; first compound 0.253 µM) | relative viability ([1]; first compound 0.8 µM) | relative viability ([1]; first compound 2.53 µM) | relative viability ([1]; first compound 8 µM) | relative viability (TGX 221 + Palbociclib; first compound 0.08 µM) | relative viability (TGX 221 + Navitoclax; first compound 0.08 µM) | relative viability (TGX 221 + Navitoclax; first compound 0.253 µM) | relative viability (TGX 221 + Navitoclax; first compound 0.8 µM) | relative viability (TGX 221 + Navitoclax; first compound 2.53 µM) | relative viability (TGX 221 + Navitoclax; first compound 8 µM) | relative viability (TGX 221 + Pemetrexed; first compound 0.08 µM) |
| --- | --- | --- | --- | --- | --- | --- | --- | --- | --- | --- | --- | --- | --- | --- | --- | --- | --- | --- | --- | --- |
| NCI-H1648 | 0.247 | 0.231 | 0.25 | 0.273 | 0.883 | 0.811 | 0.722 | 0.674 | – | – | – | – | – | – | – | – | – | – | – | – |
| NCI-H1755 | 0.422 | 0.385 | 0.421 | 0.436 | 0.344 | 0.38 | 0.361 | 0.39 | 0.396 | 0.466 | 0.349 | 0.368 | 0.423 | 0.36 | 0.948 | 0.949 | 0.891 | 0.606 | 0.444 | 0.461 |
| PC-3 [JPC-3] | 0.516 | 0.541 | 0.499 | 0.566 | 1.09 | 1.11 | 1.04 | 1 | 0.818 | 0.731 | 0.913 | 1.11 | 0.953 | 0.522 | 0.722 | 0.768 | 0.847 | 0.806 | 0.863 | 1.08 |
| HCC-44 | 1.01 | 1 | 0.933 | 0.991 | 0.646 | 0.655 | 0.643 | 0.668 | – | – | – | – | – | 1.02 | 0.992 | 0.981 | 0.918 | 0.837 | 0.732 | 0.681 |
| CAL-12T | 0.556 | 0.467 | 0.326 | 0.0733 | 0.976 | 1.21 | 1.25 | 1.17 | 0.389 | 0.353 | 0.435 | 0.36 | 0.362 | 0.466 | 1.06 | 1.2 | 1.36 | 1.23 | 1.07 | 1.12 |
| ChaGo-K-1 | 0.835 | 0.916 | 0.921 | 0.935 | 0.259 | 0.236 | 0.231 | 0.254 | 0.48 | 0.614 | 0.661 | 0.595 | 0.542 | 0.853 | 0.957 | 1.02 | 0.987 | 0.737 | 1.36 | 0.264 |
| NCI-H2126 | 0.341 | 0.342 | 0.354 | 0.308 | 0.574 | 0.673 | 0.615 | 0.656 | 0.588 | 0.573 | 0.604 | 0.45 | 0.568 | 0.348 | 0.831 | 0.835 | 0.837 | 0.752 | 0.817 | 0.693 |
| HCC-827 | 0.468 | 0.487 | 0.436 | 0.425 | 0.294 | 0.272 | 0.248 | 0.249 | 0.315 | 0.469 | 0.313 | 0.403 | 0.224 | 0.489 | 0.951 | 1.02 | 1.02 | 1.05 | 0.982 | 0.264 |
| LCLC-97TM1 | 0.263 | 0.238 | 0.206 | 0.232 | 0.169 | 0.173 | 0.197 | 0.179 | 0.767 | 0.979 | 0.98 | 0.936 | 0.806 | 0.184 | 0.389 | 0.264 | 0.42 | 0.464 | 0.481 | 0.167 |
| HCC-15 | 0.663 | 0.718 | 0.635 | 0.724 | 0.237 | 0.203 | 0.209 | 0.203 | 0.522 | 0.627 | 0.601 | 0.673 | 0.61 | 0.497 | 0.745 | 0.642 | 0.579 | 0.67 | 0.642 | 0.212 |
| NCI-H727 | 0.518 | 0.667 | 0.679 | 0.602 | – | – | – | – | 0.507 | 0.415 | 0.483 | 0.285 | 0.419 | 0.643 | 0.383 | 0.317 | 0.491 | 0.332 | 0.365 | – |
| NCI-H2170 | 0.423 | 0.393 | 0.365 | 0.334 | 0.252 | 0.213 | 0.271 | 0.268 | 0.486 | 0.514 | 0.662 | 0.635 | 0.691 | 0.332 | 0.572 | 0.64 | 0.594 | 0.541 | 0.51 | 0.263 |
| 201T | 0.348 | 0.331 | 0.337 | 0.32 | 0.373 | 0.318 | 0.351 | 0.374 | 0.564 | 0.597 | 0.521 | 0.516 | 0.654 | 0.356 | – | 1.26 | 1.21 | 1.19 | 1.15 | 0.324 |
| NCI-H838 | 0.187 | 0.19 | 0.188 | 0.179 | 0.232 | 0.235 | 0.232 | 0.231 | 0.251 | 0.295 | 0.317 | 0.267 | 0.269 | 0.213 | 1.08 | 0.977 | 1.05 | 0.888 | 0.779 | 0.255 |
| NCI-H1915 | 0.497 | 0.536 | 0.498 | 0.473 | 0.437 | 0.526 | 0.452 | 0.516 | 0.335 | 0.344 | – | 0.314 | 0.34 | 0.491 | 0.788 | 0.765 | 0.779 | 0.79 | 0.775 | 0.459 |
| LCLC-103H | 0.471 | 0.469 | 0.424 | 0.495 | 0.481 | 0.451 | 0.455 | 0.5 | 0.33 | 0.415 | 0.458 | 0.463 | 0.404 | 0.472 | – | – | – | – | – | 0.441 |
| SK-LU-1 | 0.359 | 0.357 | 0.379 | 0.317 | 0.89 | 0.907 | 0.898 | 0.838 | 0.172 | 0.198 | 0.161 | 0.198 | 0.196 | 0.342 | 0.392 | 0.84 | 0.726 | 0.786 | 0.772 | 0.923 |
